One data set concerns ATDC5/FOP-ACVR1 cells. Nature of the data set: ALP assay (HTS and dose-response) in ATDC5/FOP-ACVR1. The format is cell-based, mouse. The settings on record: Mus musculus, 72 h, read-out: IC50 (ALP assay). On the procedure:
ATDC5/FOP-ACVR1 cells were plated in 96-well white plates (2,000 cells/well/40 μL, Corning) in DMEM/F-12 supplemented with 5% (v/v) FBS. Two hours after incubation at 37°C under 5% CO2, 10 μL of test compounds (final 1 μM) was added, and the assay plates were incubated at 37°C under 5% CO2. After 3 days of incubation, ALP activity was measured using an Amplite Colorimetric Alkaline Phosphatase Assay Kit (AAT Bioquest) according to the manufacturer's protocol.
Generation of ATDC5 stably expressing ACVR1. WT - or FOP-ACVR1 was inserted into doxycycline (Dox)- […]
(KW111/WT-ACVR1 or KW111/FOP-ACVR1). KW111/WT-ACVR1 or KW111/FOP-ACVR1 and PBaseII […]
FuGeneHD® (Promega) according to the manufacturer’s protocol, and the neomycin- resistant population (500 µg/mL) was selected. […]
HTS campaign and follow-up screens. […] After 3 days incubation, Alkaline Phosphatase activity (ALP) or AlamarBlue activity was measured using Amplite™ Colorimetric Alkaline Phosphatase Assay Kit (AAT Bioquest) or alamarBlue® Cell Viability Reagent (Thermo Fisher Scientific) according to the manufacturer’s protocol, respectively. […]
was measured on POWERSCAN4 (DS Pharma Biomedical) or EnVision® Multilabel Reader (PerkinElmer).
Inhibitory effects of the screened compounds are given as percent inhibition, which was calculated using the following equation: (1-([Abs of compound] - [Abs of Min])/([Abs of Max] - [Abs of Min]))× 100, where [Abs of Max] and [Abs of Min] are the mean Abs of DMSO control and 1 µM DMH-1, respectively. The Z’ factor, which is widely used as a measure of the assay quality of each plate, was calculated using the following equation: Z’ factor = 1 - 3 × ([SD of Max] + [SD of Min])/([Abs of Max] - [Abs of Min]) (SI Appendix, Fig.
The S/B (signal-to-background) ratio was calculated using the following equation: ([Abs of Max]/[Abs of Min]) (SI Appendix, Fig. S3B). […]

The test system of data set [1] is TGF-β signaling (CAGA-Luc). Nature of the data set: CAGA-Luc reporter assay in FOP-iMSCs. The format is cell-based, human. Particulars: activin A and compounds for 3 hr. How it is done:
(§1) FOP-iMSCs transiently transfected with BRE-Luc (A) or CAGA-Luc (B) with CMV-Renilla were stimulated with activin A and compounds for 16 hr (A) or 3 hr (B). […] One day after siRNA transfection, chondrogenic induction with activin A was initiated, and after 7 days the cells were harvested. […] FOP-iMSCs cultured with 10% FBS were treated with 100 nM rapamycin (Rapa) or TAK 165 (TAK) for 2 hr, and the cells were harvested. […] 1 μM TAK, 1 μM CP (CP-724714, another selective ERBB2 inhibitor), or 10 nM Rapa were applied in the experiments.

The subject of data set [2] is NOD/SCID mice transplanted with FOP-iMSCs. From the text: (§2) MTOR s604 […]tt […]at […]
For X- ray images, mice were anesthetized with isoflurane (5% for induction, 2-3% for maintenance, Abbvie), immobilized and X-rayed using µFX-1000 (Fujifilm) or DX-50 (Faxitron Bioptics). µCT images were scanned using X-ray CT systems (inspeXio SMX-100CT, Shimadzu) and analyzed with TRI/3D-BON software (Ratoc System Engineering) according to the manufacturer's instructions. […]
Activin-A-induced HO model transplanted with FOP-iMSCs. FOP- (right leg) and resFOP-iMSCs (left leg) (4 x 10^6 cells, respectively) were transplanted into the gastrocnemius muscle of NOD/ShiJic-scid Jcl (NOD/SCID) mice (8 weeks, male, CLEA Japan) with C3H -DoxOn-hINHBA (5 x 10^5 cells), which can continuously expose Activin-A to the transplanted iMSCs in vivo ( Hino et al., 2015) . In the Dox-induced group, 1 mg/mL Dox (Sigma-Aldrich) was administered via drinking water with 10 mg/mL sucrose (Nacalai Tesque) for two weeks after transplantation. Compounds were intraperitoneally administered once a day, five times a week. Eight weeks after transplantation, the transplanted cells were harvested , fixed with 4% paraformaldehyde for 24 h, embedded in paraffin, and sectioned and stained with HE, von Kossa, Safranin O, human specific anti-Vimentin antibody and Collagen I antibody as previously described (Hino et al., 2015; Umeda et al., 2012; […]

A further data set relates to BMP signaling (BRE-Luc). Nature of the data set: BRE-Luc reporter assay in FOP-iMSCs. It is filed as cell-based, human. The settings on record: activin A and compounds for 16 hr. How it is done: as §1
Background: In a reporter assay the amount or activity of a reporter protein is the signal.

Data set [3] concerns BMP-7-induced HO model mice (C57BL/6). Nature of the data set: BMP-7-induced HO model mice.
Excerpt: as §2
For X- ray images, mice were anesthetized with isoflurane (5% for induction, 2-3% for maintenance, Abbvie), immobilized and X-rayed using µFX-1000 (Fujifilm) or DX-50 (Faxitron Bioptics). µCT images were scanned using X-ray CT systems (inspeXio SMX-100CT, Shimadzu) and analyzed with TRI/3D-BON software (Ratoc System Engineering) according to the manufacturer's instructions. Four weeks after injection, the injected sites were harvested, fixed with 4% paraformaldehyde for 24 h, embedded in paraffin, and sectioned and stained […]
BMP-7-induced HO model mice. BMP -7 (2 µ g/mouse) was injected into the right gastrocnemius muscle of C57BL/6NJcl mice (6-8 weeks, male, CLEA Japan), and compounds were administered once a day, five times a week (intraperitoneal administration). Mice were analyzed 2 weeks after injection. […]

The test system of another data set is BMP type I receptors. Also on record: method as in Lewis and Prywes, 2013. The settings on record: ref Lewis and Prywes, 2013; cited from earlier work.
In another data set the test system is FOP-iMSCs. Nature of the data set: 2D chondrogenic induction of FOP-iMSCs with activin A (GAG, Alcian blue). The settings on record: activin A, 7 days. The format is cell-based, human.
In another data set the test system is mTOR signaling (p-S6). The experiment in a line: p-S6 western blotting during chondrogenic induction of FOP-iMSCs with activin A. It is filed as cell-based, human. Particulars: 1 µM. On the procedure: Western blotting. SDS- PAGE and blotting with whole-cell lysates were performed by standard procedures.
Protein bands were detected with ECL Prime Western Blotting Detection Reagent (GE Healthcare) and visualized using BIO-RAD Molecular Imager® Chemi-DocTM XRS+ with Image LabTM software (Bio-Rad).
All data (relative intensity) were corrected by β-actin.
Antibodies for western blotting and immunostaining.
N ame Company Cat. No Concentration
Human Activin RIA/ALK-2 Antibody R&D Systems) AF637 1:100
Anti-human Vimentin antibody Abcam ab16700 1:40
Collagen I Antibody Novus NB600- 1:100
Anti-rabbit IgG, HRP-linked Antibody Cell Signaling #7074 1:10000 […]
2nd Goat anti-Rabbit IgG (H+L) Secondary Antibody, Invitrogen A-11008 1:100 antibody Alexa Fluor® 488 conjugate
Goat anti-Rabbit IgG (H+L) Secondary Antibody, Invitrogen A-21428 1:500

As a reminder, the IC50 is the concentration needed to halve the response being measured. As to `CN1CCN(CCOc2cc(OC3CCOCC3)c3c(Nc4c(Cl)ccc5c4OCO5)ncnc3c2)CC1` [AZD0530, saracatinib], in the data set on ATDC5/FOP-ACVR1 cells, the IC50 amounted to 4 nM. In addition, the “CAGA-Luc (TGF-β-responsive luciferase reporter)” value in data set [1] is reported as “inhibited”. Further, in data set [2] (5 mg/kg i.p.), the “body weight change compared with vehicle group” value is “No significant differences”; the “hypertrophic chondrocytes and von Kossa- and COL1-positive bone regions” value is listed as “fewer”. The “HO derived from FOP-iMSCs (heterotopic bone volume)” value in data set [2] (5 mg/kg i.p. once daily, five times a week, 8 weeks after transplantation) is reported as “significantly suppressed”. Also, the “BRE-Luc (BMP-specific luciferase reporter)” value with BMP signaling (BRE-Luc) is given as “inhibited”. The “body weight change compared to vehicle group” value in data set [3] (i.p. for 2 weeks, n=5) was “No significant differences”. In addition, the “BMP-7-induced HO (heterotopic bone volume)” value in data set [3] (i.p. once daily 5 times a week for 2 weeks) is “suppressed”. In data set [3] (i.p. once daily 5 times a week for 2 weeks, N = 5), the “# of HO (> 20 mm3): number of mice harboring HO” value is 1/5. The “inhibition of BMP type I receptors” value in the data set on BMP type I receptors is “inhibited”. In the data set with FOP-iMSCs (1 μM), the “inhibition of glycosaminoglycan (GAG) production” value is listed as “potent inhibition”. In addition, the “suppression of chondrogenic induction (GAG), dose dependence” value in the data set on FOP-iMSCs was “dose-dependent”. For the same compound, the “p-S6 levels from 2 hr after treatment” value in the data set with mTOR signaling (p-S6) is “significantly inhibited”.

(Values after article PMC6235670, “An mTOR Signaling Modulator Suppressed Heterotopic Ossification of Fibrodysplasia Ossificans Progressiva” (Stem Cell Reports, 2018).)
